ChEMBL document CHEMBL1201862, “PubChem BioAssay data set” (2004)
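Results reflect a 48-hour exposure of cells in 96-well plates to compound at five concentrations. GI50: concentration for 50% inhibition of growth.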 Active and inactive are the calls of the source. Rule as the data show it: active = GI50 up to about 1.1 µM and inactive = higher. Starred links: 1 amine or outer side, 2 acyl side, 3 side chain; linkers in the order of their positions; H or OH if unused. Non-standard residues stand in square brackets, D forms with d. Residues, ends and D or L forms follow the SMILES beside them. ξ: configuration not given here. X24 = O=C(C(CC(O)CO)O[*:1])[*:2]; Ile(3ξ) = CCC(C)[C@H](N)C(=O)O; NMeV = CN[C@H](C(=O)O)C(C)C; NMeA = CN[C@@H](C)C(=O)O; βAla = NCCC(=O)O

What was measured:
Assay in all cases: growth of human tumour cells (NCI), 48 h
TK-10 = test system: TK-10
SF-268 = test system: SF-268
SK-MEL-2 = test system: SK-MEL-2
SW-620 = test system: SW-620
NCI-H522 = test system: NCI-H522
CCRF-CEM = test system: CCRF-CEM
SF-295 = test system: SF-295
SNB-75 = test system: SNB-75
HCT-15 = test system: HCT-15
M14 = test system: M14
786-0 = test system: 786-0
U-251 = test system: U-251
SK-MEL-28 = test system: SK-MEL-28
RPMI-8226 = test system: RPMI-8226
K562 = test system: K562
OVCAR-3 = test system: OVCAR-3
NCI-H226 = test system: NCI-H226

SMILES | GI50 (TK-10) | GI50 (SF-268) | GI50 (SK-MEL-2) | GI50 (SW-620) | GI50 (NCI-H522) | GI50 (CCRF-CEM) | GI50 (SF-295) | GI50 (SNB-75) | GI50 (HCT-15) | GI50 (M14) | GI50 (786-0) | GI50 (U-251) | GI50 (SK-MEL-28) | GI50 (RPMI-8226) | GI50 (K562) | GI50 (OVCAR-3) | GI50 (NCI-H226)
CN(C)CCc1ccc(Cl)cc1Cl | > 100 µM (inactive) | > 100 µM (inactive) | > 100 µM (inactive) | > 100 µM (inactive) | > 100 µM (inactive) | > 100 µM (inactive) | > 100 µM (inactive) | 28.3 µM (inactive) | > 100 µM | > 100 µM (inactive) | > 100 µM (inactive) | > 100 µM (inactive) | > 100 µM (inactive) | > 100 µM (inactive) | > 100 µM (inactive) | – | –
CC(=O)O/N=C/c1cc2c(cc1Br)OCO2 | > 349 µM (inactive) | > 349 µM (inactive) | > 349 µM (inactive) | > 349 µM (inactive) | 185 µM (inactive) | > 349 µM (inactive) | 291 µM (inactive) | – | > 349 µM | – | > 349 µM (inactive) | > 34.9 µM (inactive) | > 349 µM (inactive) | > 349 µM (inactive) | > 349 µM (inactive) | 137 µM (inactive) | –
CCC12CCCNC1c1c(n(C)c3ccccc13)C(C(=O)OC)C2 (stereo unspecified) | 116 µM (inactive) | 85.5 µM (inactive) | 62.2 µM (inactive) | 68.1 µM (inactive) | 8.02 µM (inactive) | 85.1 µM (inactive) | 50.4 µM (inactive) | – | 81.1 µM | – | 93.8 µM (inactive) | 61.7 µM (inactive) | 100 µM (inactive) | 9.4 µM (inactive) | 67.9 µM (inactive) | 11.2 µM (inactive) | 126 µM (inactive)
CC(=O)O[C@H]1CC[C@@]2(C)C(=CC[C@@H]3C2CC[C@]2(C)Nc4c(cnn4-c4ccccc4)CC32)C1 (stereo partly specified) | 56.5 µM (inactive) | – | 54.6 µM (inactive) | 19.4 µM (inactive) | – | 5.51 µM (inactive) | 2.69 µM (inactive) | 4.07 µM (inactive) | 10.4 µM | 46.1 µM (inactive) | 4.73 µM (inactive) | 4.98 µM (inactive) | 10.4 µM (inactive) | 2.09 µM (inactive) | – | 48.2 µM (inactive) | > 100 µM (inactive)
CCCCCCCCOCC(O)COC(C)C (stereo unspecified) | > 100 µM (inactive) | 39.1 µM (inactive) | – | 59.8 µM (inactive) | – | 20.9 µM (inactive) | 58.7 µM (inactive) | – | 27.4 µM | 56.4 µM (inactive) | 45.7 µM (inactive) | 89.3 µM (inactive) | > 100 µM (inactive) | 22.8 µM (inactive) | 28.1 µM (inactive) | 16.2 µM (inactive) | 70 µM (inactive)
COc1cc(C)c(C(=O)/C=C/c2cc(OC)c(O)c(OC)c2)cc1O | 45.6 µM (inactive) | 23.9 µM (inactive) | 18.9 µM (inactive) | 26.4 µM (inactive) | 18.1 µM (inactive) | 12.5 µM (inactive) | 39 µM (inactive) | 20.7 µM (inactive) | – | 15.3 µM (inactive) | 19.2 µM (inactive) | 19.6 µM (inactive) | 18.6 µM (inactive) | > 100 µM (inactive) | 19.4 µM (inactive) | 25.2 µM (inactive) | –
CCOC1=CP(=O)(OCC)CC(C)=C1Cl (stereo unspecified) | > 100 µM (inactive) | > 100 µM (inactive) | > 100 µM (inactive) | > 100 µM (inactive) | > 100 µM (inactive) | > 100 µM (inactive) | > 100 µM (inactive) | 30.4 µM (inactive) | – | > 100 µM (inactive) | > 100 µM (inactive) | > 100 µM (inactive) | > 100 µM (inactive) | > 100 µM (inactive) | > 100 µM (inactive) | > 100 µM (inactive) | > 100 µM (inactive)
COc1ccc2c(c1)[n+]([O-])c(C(=O)C/C(=N\NC(=O)C[N+](C)(C)C)C(=O)Nc1cc(Cl)ccc1Cl)c(C)[n+]2[O-] | > 100 µM (inactive) | > 100 µM (inactive) | > 100 µM (inactive) | > 100 µM (inactive) | > 100 µM (inactive) | > 100 µM (inactive) | > 100 µM (inactive) | > 100 µM (inactive) | > 100 µM | > 100 µM (inactive) | > 100 µM (inactive) | > 100 µM (inactive) | > 100 µM (inactive) | > 100 µM (inactive) | > 100 µM (inactive) | > 100 µM (inactive) | > 100 µM (inactive)
O=C(O)COc1ccc(O)c2c1C(=O)CCCC2=O | > 100 µM (inactive) | > 100 µM (inactive) | > 100 µM (inactive) | > 100 µM (inactive) | > 100 µM (inactive) | > 100 µM (inactive) | > 100 µM (inactive) | – | > 100 µM | > 100 µM (inactive) | > 100 µM (inactive) | > 100 µM (inactive) | > 100 µM (inactive) | > 100 µM (inactive) | > 100 µM (inactive) | > 100 µM (inactive) | –
O=C(/C=C\c1cccc2ccccc12)c1cccs1 | 19 µM (inactive) | 11 µM (inactive) | – | 1.62 µM (inactive) | 2.52 µM (inactive) | 2.74 µM (inactive) | 15.6 µM (inactive) | 23.6 µM (inactive) | 3.18 µM | 15.1 µM (inactive) | 10.7 µM (inactive) | 4.43 µM (inactive) | 14.3 µM (inactive) | 2.47 µM (inactive) | 2.56 µM (inactive) | 11.4 µM (inactive) | –
N#CC(C#N)=Cc1ccc(C(O)P(=O)(O)O)cc1 (stereo unspecified) | > 100 µM (inactive) | > 100 µM (inactive) | > 100 µM (inactive) | > 100 µM (inactive) | 56.6 µM (inactive) | 71.8 µM (inactive) | > 100 µM (inactive) | – | > 100 µM | > 100 µM (inactive) | > 100 µM (inactive) | > 100 µM (inactive) | > 100 µM (inactive) | > 100 µM (inactive) | 69.2 µM (inactive) | > 100 µM (inactive) | > 100 µM (inactive)
O=C1NC2C=CN(Cc3ccccc3)C=C2C(=O)N2CCCC12 (stereo unspecified) | > 100 µM (inactive) | > 100 µM (inactive) | > 100 µM (inactive) | > 100 µM (inactive) | > 100 µM (inactive) | > 100 µM (inactive) | > 100 µM (inactive) | > 100 µM (inactive) | > 100 µM | > 100 µM (inactive) | > 100 µM (inactive) | > 100 µM (inactive) | > 100 µM (inactive) | – | – | > 100 µM (inactive) | > 100 µM (inactive)
COc1cc2cc3c4c(cc(OC)c(OC)c4c2cc1OC)CCN3C(=O)CCC(=O)O | > 100 µM (inactive) | > 100 µM (inactive) | > 100 µM (inactive) | > 100 µM (inactive) | > 100 µM (inactive) | > 100 µM (inactive) | > 100 µM (inactive) | – | – | > 100 µM (inactive) | > 100 µM (inactive) | > 100 µM (inactive) | > 100 µM (inactive) | > 100 µM (inactive) | > 100 µM (inactive) | > 100 µM (inactive) | > 100 µM (inactive)
CCCCCCCC(=O)OCC(COC(=O)C(C)(C)C)OC(=O)Cc1ccccc1 (stereo unspecified) | > 100 µM (inactive) | > 100 µM (inactive) | – | > 100 µM (inactive) | – | > 100 µM (inactive) | > 100 µM (inactive) | – | > 100 µM | > 100 µM (inactive) | > 100 µM (inactive) | > 100 µM (inactive) | > 100 µM (inactive) | > 100 µM (inactive) | > 100 µM (inactive) | 58.3 µM (inactive) | > 100 µM (inactive)
CCOc1ccc2c(c1)[n+]([O-])c(-c1ccccc1Cl)c(N)[n+]2[O-] | – | > 100 µM (inactive) | > 100 µM (inactive) | > 100 µM (inactive) | 17.4 µM (inactive) | 48.2 µM (inactive) | > 100 µM (inactive) | 80 µM (inactive) | – | > 100 µM (inactive) | > 100 µM (inactive) | > 100 µM (inactive) | > 100 µM (inactive) | – | > 100 µM (inactive) | > 100 µM (inactive) | > 100 µM (inactive)
C=C1c2ccccc2N(S(=O)(=O)c2ccc(C)cc2)C12CCCCC2 | > 100 µM (inactive) | 63 µM (inactive) | 52.6 µM (inactive) | 59.3 µM (inactive) | 34.8 µM (inactive) | 25.2 µM (inactive) | 74.5 µM (inactive) | 50.9 µM (inactive) | > 100 µM | 94.4 µM (inactive) | > 100 µM (inactive) | 94.6 µM (inactive) | 45.2 µM (inactive) | 24.4 µM (inactive) | 29 µM (inactive) | 77.6 µM (inactive) | 53.2 µM (inactive)
COc1cc(C2C(C(=O)O)=C(COC(C)=O)Oc3cc4c(cc32)OCO4)cc(OC)c1OC(C)=O (stereo unspecified) | > 100 µM (inactive) | – | > 100 µM (inactive) | > 100 µM (inactive) | – | > 100 µM (inactive) | > 100 µM (inactive) | > 100 µM (inactive) | > 100 µM | > 100 µM (inactive) | > 100 µM (inactive) | > 100 µM (inactive) | > 100 µM (inactive) | > 100 µM (inactive) | > 100 µM (inactive) | > 100 µM (inactive) | –
CCC(C)[C@@H]1NC(=O)[C@@H]2CCCN2C(=O)C(CC(O)CO)OC(=O)CCNC(=O)[C@H](C)N(C)C(=O)[C@H](C(C)C)N(C)C1=O (stereo partly specified) (cyclo([Ile(3ξ)][NMeV][NMeA][βAla][X24]P)) | > 100 µM (inactive) | > 100 µM (inactive) | > 100 µM (inactive) | > 100 µM (inactive) | – | 35.8 µM (inactive) | 91 µM (inactive) | > 100 µM (inactive) | > 100 µM | > 100 µM (inactive) | > 100 µM (inactive) | > 100 µM (inactive) | > 100 µM (inactive) | > 100 µM (inactive) | > 100 µM (inactive) | > 100 µM (inactive) | > 100 µM (inactive)
